The target of assay [1] is T1, rat liver HMG-CoA reductase (Rattus norvegicus, UniProt P51639).
T1 construct: from tissue; host or cells: rat liver microsomes
T1 sequence (P51639 1-887): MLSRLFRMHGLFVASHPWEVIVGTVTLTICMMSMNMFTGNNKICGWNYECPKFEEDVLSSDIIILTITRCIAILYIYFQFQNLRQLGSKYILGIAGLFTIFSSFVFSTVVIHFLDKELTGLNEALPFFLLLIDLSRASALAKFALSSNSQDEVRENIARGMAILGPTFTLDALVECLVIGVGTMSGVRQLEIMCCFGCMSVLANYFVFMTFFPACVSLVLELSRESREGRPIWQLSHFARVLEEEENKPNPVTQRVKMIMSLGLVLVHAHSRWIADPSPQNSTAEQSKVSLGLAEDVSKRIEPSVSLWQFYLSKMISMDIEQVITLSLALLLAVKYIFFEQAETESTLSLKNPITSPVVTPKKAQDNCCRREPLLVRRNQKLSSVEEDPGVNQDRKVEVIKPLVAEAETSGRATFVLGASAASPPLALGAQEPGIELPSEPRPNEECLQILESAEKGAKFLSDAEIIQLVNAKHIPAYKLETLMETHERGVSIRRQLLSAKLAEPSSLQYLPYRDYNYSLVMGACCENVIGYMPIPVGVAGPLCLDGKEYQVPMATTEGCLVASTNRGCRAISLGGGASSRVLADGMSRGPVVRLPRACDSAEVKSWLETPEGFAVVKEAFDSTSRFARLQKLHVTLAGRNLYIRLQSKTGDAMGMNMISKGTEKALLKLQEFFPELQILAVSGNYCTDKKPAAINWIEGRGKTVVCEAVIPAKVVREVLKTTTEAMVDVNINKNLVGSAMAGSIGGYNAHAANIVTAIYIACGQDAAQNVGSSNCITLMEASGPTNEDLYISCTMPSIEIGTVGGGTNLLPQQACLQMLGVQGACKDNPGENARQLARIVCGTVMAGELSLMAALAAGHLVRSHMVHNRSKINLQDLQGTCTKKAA
Kind of assay: Test A: In Vitro Inhibition of Microsomal HMG-CoA Reductase. Format: biochemical. The note with it: microsomal rat liver enzyme; [3-14C]-HMG-CoA 0.33 mM, NADPH 3.0 mM; pH 7.2. As to the method:
Test A: In Vitro Inhibition of Microsomal HMG-CoA Reductase:
The intact, fully activated microsomal form of rat liver HMG-CoA reductase (subunit MW ca 100,000 daltons) was prepared as described by Parker, et al., Biochem. Biophys. Res. Commun., 125, 629-635 (1984), and used as the source of enzyme for assays. HMG-CoA reductase activity was determined essentially by the method of Shapiro, et al., Biochem. Biophys. Acta., 370, 369-377 (1974), with modifications as described by Ingebritsen and Gibson, Meth. Enzymol. 71, 486-497 (1981) with the exception that the internal standard ^3 H-mevalonolactone is added after termination of the assay. In this procedure, the enzyme is assayed by measuring the formation of product, ^14 C-mevalonate, from the substrate, [3-^14 C]-HMG-CoA, in the presence of NADPH. The ^14 C-mevalonate is converted to its lactone and isolated by silica thin-layer chromatography (Whatman LK5D, developed in 50:50 benzene:acetone) in the presence of ^3 H-mevalonolactone as an internal standard. Assays were conducted under conditions in which product formation was linear with respect to time and enzyme concentration.
To measure reductase inhibition, test compounds dissolved in water or dimethylsulfoxide and diluted in buffer A (50 mM imidazole-HCl, 250 mM NaCl, 1 mM EDTA, 1 mM EGTA, 5 mM DTT, 20 μM leupeptin, pH=7.2) were incubated with aliquots of microsomes (80-160 μg protein in buffer A) followed by addition of d,1-[3-^14 C]-HMG-CoA (0.33 mM, 2.0 dpm/picomole) and NADPH (3.0 mM). The 50 percent inhibitory concentration (IC50) for each compound in Table 1 was calculated from the linear regression line of the percent decrease (from control) in enzyme activity vs. log concentration of inhibitor, determined using at least 4 dilutions of each test compound assayed in duplicate.

Assay [2] relates to Isolated Hepatocyte Cholesterol Biosynthesis. In words: Test B: Isolated Hepatocyte Cholesterol Biosynthesis Assay. The format is cell-based, male Wistar rats. The settings on record: isolated rat hepatocytes, 10 min preincubation, 60 minutes at 37°, incorporation into sterols, read-out: Inhibition of Isolated Hepatocyte Cholesterol Biosynthesis IC50. As to the method: Test B: Isolated Hepatocyte Cholesterol Biosynthesis Assay:
Intact parenchymal hepatocytes were isolated from male Wistar rats (180-280 g) fed cholestyramine-containing or normal diet, using the collagenase perfusion method essentially as described by Seglen, in Methods in Cell Biology (D. Prescott, ed.) Vol. 13, pp. 29-83, Academic Press, New York (1976). Cell preparations were used only when viability (trypan blue exclusion) exceeded 90%. Cholesterol biosynthesis was determined as the incorporation by hepatocytes of ^3 H from [^3 H]-water into total (cellular plus medium) 3β-hydroxy sterols as per Ingebritsen, et al., J. Biol. Chem., 254, 9986-9989 (1979). Hepatocyte sterols and lipids were isolated by a modification of the methods described by Kates, in Techniques in Lipidology, (M. Kates, ed.), pp. 349, 360-363, North Holland Publ. Co., Amsterdam, 1972. […] The ^3 H-labelled sterols are quantified by liquid scintillation and corrected for counting efficiency. […]
Cells were preincubated for 10 minutes with or without aliquots of test compounds added as water solutions of sodium salts or as dimethylsulfoxide solutions of lactones. […] The IC50 for inhibition of sterol synthesis by test compounds which is shown in Table 2 was calculated from the linear regression curve of % inhibition (compared to controls) vs. log concentration using at least 4 concentrations of inhibitor. […]

Assay [3] has as its system de novo biosynthesis of cholesterol. Kind of assay: Test C: In Vivo Acute Cholesterol Biosynthesis Inhibition in Rats. Also on record: species or system male Wistar rats. The settings on record: Rattus norvegicus, 1 h. Here is the method: Test C: In Vivo Acute Cholesterol Biosynthesis Inhibition in Rats:
Male Wistar rats (160-200 g, housed 2 per cage) were maintained on normal diet (Purina Rat Chow and water, ad libitum) for at least 7 days on a reversed lighting schedule (7:00 a.m. to 5:00 p.m. dark). Food was removed 15 hours prior to dosing. Compounds were administered at 8:00 a.m. by intragastric intubation using 0.5-1.0 mL of water or propylene glycol solutions of sodium salts, lactones, or esters of the test compounds. Controls received equal volumes of the vehicle.
Thirty minutes after receiving the test substances, rats were injected intraperitoneally with 0.9 mL of 0.9% NaCl containing approximately 120 μCi per kg body weight of sodium [1-^14 C] acetate (1-3 mCi/mmol). After a 60 minute incorporation period, rats were sacrificed and liver and blood samples were obtained. Aliquots of plasma (1.0 mL) obtained by centrifugation of heparin+EDTA-treated blood, and aliquots of liver homogenates (equivalent to 0.50 g liver wet weight) were taken for determination of radiolabeled 3β-hydroxy sterols. Sterol isolation for the liver samples followed the method of Kates as described above for the hepatocyte procedure (Test B) while the plasma samples were directly saponified followed by isolation of the digitonin-precipitable sterols. ^14 C-labelled sterols were quantified by liquid scintillation counting (efficiency corrected). Mean percent inhibition of ^14 C incorporated into liver and into plasma cholesterol were calculated for groups of treated animals and compared to mean values for controls conducted simultaneously.
Therefore, Test C provides information on the ability of test substances to suppress the de novo biosynthesis of cholesterol in vivo in rats with oral dosing.

Molecules are shown by their SMILES. Like-named read-outs stand apart in the source and are kept apart here. Some results are limits rather than exact numbers.

This is an account of results in patent US4897490A, “Antihypercholesterolemic tetrazole compounds” (Bristol-Meyers Company, priority 1988, dated 1990).

A word on the IC50: it is the concentration at which inhibition is half-maximal.

As for `CCOC(=O)C[C@H](O)C[C@H](O)/C=C/C(=C(c1ccc(F)cc1)c1ccc(F)cc1)c1nnnn1C` (relative stereo) [Example 11, Ethyl (±)-erythro-9,9-bis(4-fluorophenyl)-3,5-dihydroxy-8-(1-methyl-1H-tetrazol-5-yl)-6,8-nonadienoate], in assay [1], the IC50 was over 330 µM.
Consider `Cn1nnnc1C(/C=C/[C@@H](O)C[C@@H](O)CC(=O)O)=C(c1ccc(F)cc1)c1ccc(F)cc1` (relative stereo) [Example 12, Sodium (±)-erythro-9,9-bis(4-fluorophenyl)-3,5-dihydroxy-8-(1-methyl-1H-tetrazol-5-yl)-6,8-nonadionate], for which the results for the IC50 in assay [1] and in assay [2] were 0.037 ± 0.01 µM and 0.023 ± 0.011 µM, respectively. Besides, the ED50 in assay [3] (read-out: 50% Inhibitory Dose (ED50), liver cholesterol, oral (intragastric), liver, 14C-acetate incorporation 60 minutes) was 0.08 mg/kg; in assay [3] (read-out: 50% Inhibitory Dose (ED50), plasma cholesterol, oral (intragastric), plasma, 14C-acetate incorporation 60 minutes), 0.08 mg/kg.
In assay [1], `Cn1nnnc1C(/C=C/[C@@H]1C[C@@H](O)CC(=O)O1)=C(c1ccc(F)cc1)c1ccc(F)cc1` (relative stereo) [Example 13, Trans-6-[4,4-bis(4-fluorophenyl)-3-(1-methyl-1H-tetrazol-5-yl)-1,3-butadienyl]-tetrahydro-4-hydroxy-2H-pyran-2-one] registered an IC50 of 1.09 ± 0.29 µM.
`Cn1nnnc1C(/C=C/C=C/[C@@H](O)C[C@@H](O)CC(=O)O)=C(c1ccc(F)cc1)c1ccc(F)cc1` (relative stereo) [Example 15, Sodium (±)-erythro-11,11-bis(4-fluorophenyl)-3,5-dihydroxy-10-(1-methyl-1H-tetrazol-5-yl)-6,8,10-undecatrienoate]: inhibition in assay [1] was half-maximal at 5.7 µM (IC50).
For `CC[C@H](C)C(=O)O[C@H]1C[C@@H](C)C=C2C=C[C@H](C)[C@H](CC[C@@H]3C[C@@H](O)CC(=O)O3)[C@H]21` [Mevinolin (Lovastatin), reference compound], the IC50 in assay [2] is 0.046 ± 0.026 µM. Moreover, in assay [3] (oral (intragastric), 14C-acetate incorporation 60 minutes, read-out: ED50 value (reference agent, tissue not stated)), the ED50 was 0.04 mg/kg.
